Tests used:
[1] = target: Protein kinase C delta type (Homo sapiens) (UniProt Q05655); assay: Inhibition of human truncated PKC delta expressed in baculovirus assessed as substrate phosphorylation using fluorescence-labelled peptides as substrate at 8 uM after 90 mins by microfluidic peptide phosphorylation assay
[2] = target: T1, Aurora kinase A (Homo sapiens) (UniProt O14965); assay: Inhibition of human full length AurA expressed in baculovirus assessed as substrate phosphorylation using fluorescence-labelled peptides as substrate at 0.06 uM after 90 mins by microfluidic peptide phosphorylation assay
T1 sequence (whole entry): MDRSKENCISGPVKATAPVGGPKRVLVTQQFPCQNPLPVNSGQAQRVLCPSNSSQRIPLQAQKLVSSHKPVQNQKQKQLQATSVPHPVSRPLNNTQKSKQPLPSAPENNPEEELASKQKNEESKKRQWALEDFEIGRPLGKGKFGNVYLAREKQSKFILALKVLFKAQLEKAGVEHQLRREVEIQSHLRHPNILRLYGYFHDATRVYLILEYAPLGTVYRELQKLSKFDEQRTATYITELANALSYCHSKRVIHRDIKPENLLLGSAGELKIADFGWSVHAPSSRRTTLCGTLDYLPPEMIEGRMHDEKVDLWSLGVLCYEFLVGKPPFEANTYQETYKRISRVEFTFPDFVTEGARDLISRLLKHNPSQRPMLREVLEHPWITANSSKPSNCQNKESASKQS

[3] = target: Vascular endothelial growth factor receptor 2 (Homo sapiens) (UniProt P35968); assay: Inhibition of human KDR cytoplasmic domain expressed in baculovirus assessed as substrate phosphorylation using fluorescence-labelled peptides as substrate at 0.2 uM after 90 mins by microfluidic peptide phosphorylation assay
Chain of Vascular endothelial growth factor receptor 2 (Homo sapiens) (P35968 whole entry, the tested form may be a part): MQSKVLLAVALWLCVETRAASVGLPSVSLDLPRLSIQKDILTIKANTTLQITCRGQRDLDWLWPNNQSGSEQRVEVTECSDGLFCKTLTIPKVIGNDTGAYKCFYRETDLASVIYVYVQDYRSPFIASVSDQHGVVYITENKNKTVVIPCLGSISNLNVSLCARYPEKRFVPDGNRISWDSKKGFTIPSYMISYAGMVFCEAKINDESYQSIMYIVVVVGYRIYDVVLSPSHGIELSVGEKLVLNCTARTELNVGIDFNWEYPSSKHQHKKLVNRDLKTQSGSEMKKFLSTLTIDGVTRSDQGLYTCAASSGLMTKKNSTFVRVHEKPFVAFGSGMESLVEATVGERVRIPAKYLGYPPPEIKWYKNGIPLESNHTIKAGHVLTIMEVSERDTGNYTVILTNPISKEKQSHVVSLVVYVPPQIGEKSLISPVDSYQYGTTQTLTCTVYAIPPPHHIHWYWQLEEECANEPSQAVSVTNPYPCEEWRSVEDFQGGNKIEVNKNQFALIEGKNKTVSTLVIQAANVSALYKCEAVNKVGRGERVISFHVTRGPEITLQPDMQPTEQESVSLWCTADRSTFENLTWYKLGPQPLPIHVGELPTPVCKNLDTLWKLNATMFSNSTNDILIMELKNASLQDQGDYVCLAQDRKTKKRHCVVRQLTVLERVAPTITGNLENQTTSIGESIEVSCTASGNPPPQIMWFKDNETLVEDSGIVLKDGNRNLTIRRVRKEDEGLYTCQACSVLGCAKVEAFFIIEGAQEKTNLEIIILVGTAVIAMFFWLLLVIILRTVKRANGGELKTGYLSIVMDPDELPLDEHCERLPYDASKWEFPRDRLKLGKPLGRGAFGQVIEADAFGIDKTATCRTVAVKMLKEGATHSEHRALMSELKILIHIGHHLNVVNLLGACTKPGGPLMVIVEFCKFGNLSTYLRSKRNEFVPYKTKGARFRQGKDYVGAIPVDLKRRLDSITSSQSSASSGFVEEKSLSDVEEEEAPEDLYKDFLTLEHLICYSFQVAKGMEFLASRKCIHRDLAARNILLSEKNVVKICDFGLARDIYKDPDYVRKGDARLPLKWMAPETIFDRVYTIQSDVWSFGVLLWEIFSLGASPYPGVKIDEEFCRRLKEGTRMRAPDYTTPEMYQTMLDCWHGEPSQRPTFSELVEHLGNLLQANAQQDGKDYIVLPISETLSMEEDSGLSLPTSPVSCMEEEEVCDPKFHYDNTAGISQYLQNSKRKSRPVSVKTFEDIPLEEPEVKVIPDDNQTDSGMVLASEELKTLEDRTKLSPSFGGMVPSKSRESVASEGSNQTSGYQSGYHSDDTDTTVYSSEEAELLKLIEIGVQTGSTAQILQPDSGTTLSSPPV

[4] = target: T2, Testis-specific serine/threonine-protein kinase 1 (Homo sapiens) (UniProt Q9BXA7); details: 0.1 uM
T2 sequence (whole entry): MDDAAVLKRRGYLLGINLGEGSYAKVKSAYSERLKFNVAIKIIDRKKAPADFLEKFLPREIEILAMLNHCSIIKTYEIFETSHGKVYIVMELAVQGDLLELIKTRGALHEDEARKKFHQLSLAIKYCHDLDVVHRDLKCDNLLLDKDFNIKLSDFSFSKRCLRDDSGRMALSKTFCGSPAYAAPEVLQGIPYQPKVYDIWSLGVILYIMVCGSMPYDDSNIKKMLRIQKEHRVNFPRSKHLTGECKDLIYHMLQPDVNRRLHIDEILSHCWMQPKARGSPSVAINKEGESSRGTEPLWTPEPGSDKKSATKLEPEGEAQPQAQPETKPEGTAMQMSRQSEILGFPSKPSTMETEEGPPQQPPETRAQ
Description: Inhibition of human full length TSSK1 expressed in baculovirus assessed as substrate phosphorylation using fluorescence-labelled peptides as substrate at 0.1 uM after 90 mins by microfluidic peptide phosphorylation assay

[5] = target: Mitogen-activated protein kinase kinase kinase kinase 4 (Homo sapiens) (UniProt O95819); details: 0.1 uM
Chain of Mitogen-activated protein kinase kinase kinase kinase 4 (Homo sapiens) (O95819 2-1239 limits assumed): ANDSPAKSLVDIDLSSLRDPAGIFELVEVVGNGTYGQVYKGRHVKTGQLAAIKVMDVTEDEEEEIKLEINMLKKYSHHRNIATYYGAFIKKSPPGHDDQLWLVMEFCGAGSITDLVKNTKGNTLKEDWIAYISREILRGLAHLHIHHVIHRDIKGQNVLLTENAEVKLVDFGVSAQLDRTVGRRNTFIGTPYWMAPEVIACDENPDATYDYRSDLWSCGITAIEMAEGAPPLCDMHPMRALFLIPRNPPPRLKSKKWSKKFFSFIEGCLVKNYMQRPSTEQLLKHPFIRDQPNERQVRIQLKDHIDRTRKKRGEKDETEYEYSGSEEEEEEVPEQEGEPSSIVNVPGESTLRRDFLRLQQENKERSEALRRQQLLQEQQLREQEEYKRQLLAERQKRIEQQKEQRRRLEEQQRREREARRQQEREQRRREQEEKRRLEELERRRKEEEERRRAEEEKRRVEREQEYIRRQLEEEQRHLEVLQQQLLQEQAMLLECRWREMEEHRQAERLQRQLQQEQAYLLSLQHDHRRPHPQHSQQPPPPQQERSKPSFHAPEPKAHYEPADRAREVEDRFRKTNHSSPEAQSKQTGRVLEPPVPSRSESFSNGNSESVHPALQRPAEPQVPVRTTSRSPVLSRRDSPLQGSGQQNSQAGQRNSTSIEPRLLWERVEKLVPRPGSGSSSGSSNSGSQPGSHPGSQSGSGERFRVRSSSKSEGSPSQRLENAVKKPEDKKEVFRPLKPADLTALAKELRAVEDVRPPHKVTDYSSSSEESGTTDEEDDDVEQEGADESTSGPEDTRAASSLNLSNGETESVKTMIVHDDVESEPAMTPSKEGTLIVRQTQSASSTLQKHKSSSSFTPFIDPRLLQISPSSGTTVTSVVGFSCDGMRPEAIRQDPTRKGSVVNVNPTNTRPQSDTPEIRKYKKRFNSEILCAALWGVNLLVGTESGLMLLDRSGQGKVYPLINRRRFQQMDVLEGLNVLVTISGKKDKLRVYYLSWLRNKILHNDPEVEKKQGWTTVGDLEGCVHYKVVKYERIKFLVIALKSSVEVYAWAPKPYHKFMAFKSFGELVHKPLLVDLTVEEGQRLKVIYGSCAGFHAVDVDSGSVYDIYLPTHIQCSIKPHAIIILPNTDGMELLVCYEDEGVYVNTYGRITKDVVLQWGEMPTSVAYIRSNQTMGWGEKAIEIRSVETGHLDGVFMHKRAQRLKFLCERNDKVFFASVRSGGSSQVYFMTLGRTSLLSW
Description: Inhibition of human HGK catalytic domain expressed in baculovirus assessed as substrate phosphorylation using fluorescence-labelled peptides as substrate at 0.1 uM after 90 mins by microfluidic peptide phosphorylation assay

[6] = target: T3, Serine/threonine-protein kinase D1 (Homo sapiens) (UniProt Q15139); assay: Inhibition of human full length PKD1 expressed in baculovirus assessed as substrate phosphorylation using fluorescence-labelled peptides as substrate at 1000 uM after 90 mins by microfluidic peptide phosphorylation assay
T3 sequence (whole entry): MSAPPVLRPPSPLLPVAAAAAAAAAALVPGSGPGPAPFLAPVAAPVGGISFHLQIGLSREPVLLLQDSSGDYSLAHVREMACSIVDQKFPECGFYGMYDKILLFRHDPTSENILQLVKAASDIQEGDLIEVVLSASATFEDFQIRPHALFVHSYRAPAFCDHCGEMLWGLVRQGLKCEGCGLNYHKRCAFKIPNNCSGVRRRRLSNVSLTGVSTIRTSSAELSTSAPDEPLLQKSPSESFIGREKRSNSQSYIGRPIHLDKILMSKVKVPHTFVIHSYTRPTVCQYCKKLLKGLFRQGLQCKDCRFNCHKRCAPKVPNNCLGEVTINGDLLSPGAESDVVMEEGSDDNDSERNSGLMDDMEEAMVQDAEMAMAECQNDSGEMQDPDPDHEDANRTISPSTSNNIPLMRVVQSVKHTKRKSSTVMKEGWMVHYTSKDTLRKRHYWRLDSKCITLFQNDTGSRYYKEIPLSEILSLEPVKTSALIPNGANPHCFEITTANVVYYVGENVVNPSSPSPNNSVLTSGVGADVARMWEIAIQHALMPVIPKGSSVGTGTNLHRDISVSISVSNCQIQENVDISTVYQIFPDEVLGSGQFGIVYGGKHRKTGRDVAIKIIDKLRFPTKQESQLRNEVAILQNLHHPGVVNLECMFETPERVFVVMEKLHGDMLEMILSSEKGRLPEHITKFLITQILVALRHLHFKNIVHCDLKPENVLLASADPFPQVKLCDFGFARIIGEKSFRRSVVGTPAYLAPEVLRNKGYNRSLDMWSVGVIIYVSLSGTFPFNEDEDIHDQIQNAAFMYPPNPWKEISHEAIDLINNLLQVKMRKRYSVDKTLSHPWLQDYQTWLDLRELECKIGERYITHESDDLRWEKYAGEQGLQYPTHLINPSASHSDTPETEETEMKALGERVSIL

[7] = target: T4, Protein kinase C zeta type (Homo sapiens) (UniProt Q05513); assay: Inhibition of human full length PKC zeta expressed in baculovirus assessed as substrate phosphorylation using fluorescence-labelled peptides as substrate at 1000 uM after 90 mins by microfluidic peptide phosphorylation assay
T4 sequence (whole entry): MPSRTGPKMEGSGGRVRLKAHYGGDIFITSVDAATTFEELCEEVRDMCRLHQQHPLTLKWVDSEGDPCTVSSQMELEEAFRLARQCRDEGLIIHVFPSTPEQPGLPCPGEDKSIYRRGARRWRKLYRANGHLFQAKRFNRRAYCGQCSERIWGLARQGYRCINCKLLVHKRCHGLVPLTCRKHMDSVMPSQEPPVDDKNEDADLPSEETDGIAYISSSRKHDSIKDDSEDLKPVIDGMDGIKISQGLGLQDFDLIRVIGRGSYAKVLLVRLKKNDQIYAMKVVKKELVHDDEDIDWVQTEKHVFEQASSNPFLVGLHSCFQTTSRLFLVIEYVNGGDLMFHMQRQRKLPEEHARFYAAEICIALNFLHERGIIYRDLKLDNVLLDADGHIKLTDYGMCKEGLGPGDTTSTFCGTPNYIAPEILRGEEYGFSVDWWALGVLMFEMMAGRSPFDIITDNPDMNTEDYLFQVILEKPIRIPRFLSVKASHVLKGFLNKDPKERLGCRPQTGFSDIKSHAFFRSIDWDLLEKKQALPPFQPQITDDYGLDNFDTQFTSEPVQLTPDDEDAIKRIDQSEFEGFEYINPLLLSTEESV

[8] = target: Aurora kinase B (Homo sapiens) (UniProt Q96GD4); assay: Inhibition of human full length AurB expressed in baculovirus assessed as substrate phosphorylation using fluorescence-labelled peptides as substrate at 70 uM after 90 mins by microfluidic peptide phosphorylation assay
Chain of Aurora kinase B (Homo sapiens) (Q96GD4 whole entry): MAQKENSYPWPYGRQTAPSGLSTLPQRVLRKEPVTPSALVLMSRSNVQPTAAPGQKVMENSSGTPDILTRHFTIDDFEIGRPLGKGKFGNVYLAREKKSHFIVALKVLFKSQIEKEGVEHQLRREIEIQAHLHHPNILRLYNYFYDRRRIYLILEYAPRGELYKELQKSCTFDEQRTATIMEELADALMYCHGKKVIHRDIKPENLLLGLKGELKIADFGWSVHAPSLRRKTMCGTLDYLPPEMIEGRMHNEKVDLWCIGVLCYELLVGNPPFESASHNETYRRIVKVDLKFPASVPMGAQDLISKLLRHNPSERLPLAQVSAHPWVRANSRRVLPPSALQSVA

[9] = target: Cyclin-dependent kinase 2 (Homo sapiens) (UniProt P24941); assay: Inhibition of human full length CDK2 expressed in baculovirus assessed as substrate phosphorylation using fluorescence-labelled peptides as substrate at 420 uM after 90 mins by microfluidic peptide phosphorylation assay

Chain of Protein kinase C delta type (Homo sapiens) (Q05655 whole entry, looked up, the tested form may be a part): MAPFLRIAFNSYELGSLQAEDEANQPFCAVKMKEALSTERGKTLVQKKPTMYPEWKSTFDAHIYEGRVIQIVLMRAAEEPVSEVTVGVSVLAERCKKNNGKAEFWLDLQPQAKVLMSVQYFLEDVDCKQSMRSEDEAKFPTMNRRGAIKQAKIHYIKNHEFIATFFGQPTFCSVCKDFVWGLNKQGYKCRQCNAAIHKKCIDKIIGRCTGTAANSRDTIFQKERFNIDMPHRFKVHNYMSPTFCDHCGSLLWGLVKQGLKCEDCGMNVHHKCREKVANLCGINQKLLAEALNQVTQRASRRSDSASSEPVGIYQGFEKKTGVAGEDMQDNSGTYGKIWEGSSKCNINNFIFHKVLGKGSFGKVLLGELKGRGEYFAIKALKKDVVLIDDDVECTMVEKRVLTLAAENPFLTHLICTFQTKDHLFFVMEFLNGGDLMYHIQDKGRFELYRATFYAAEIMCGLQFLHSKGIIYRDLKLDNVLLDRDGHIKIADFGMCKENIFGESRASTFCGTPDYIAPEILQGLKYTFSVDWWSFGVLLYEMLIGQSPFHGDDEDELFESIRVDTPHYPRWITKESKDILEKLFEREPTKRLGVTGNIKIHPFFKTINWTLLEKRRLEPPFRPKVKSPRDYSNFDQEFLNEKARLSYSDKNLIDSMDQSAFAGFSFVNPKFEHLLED

NCC1CCN(c2ncnc3[nH]ccc23)CC1
inhibition [1]: 67%

NC1(Cc2ccc(Cl)cc2)CCN(c2ncnc3[nH]ccc23)CC1
inhibition [2]: 7.5%

Clc1ccc(C2(c3ccc(-c4ncnc5[nH]cnc45)cc3)CCNCC2)cc1
inhibition [3]: 9%

C[C@H](CN(C)C)Oc1nc(Nc2cc3cccc(Cl)c3cn2)cnc1C#N
inhibition [4]: 0%
inhibition [5]: 0%

c1cnc2[nH]ccc2c1
inhibition [6]: 54%
inhibition [7]: 31.5%

CNCc1ccc(-c2ncnc3[nH]cnc23)cc1
inhibition [8]: 85%

c1nc(N2CCOCC2)c2nc[nH]c2n1
inhibition [9]: 75%

Source: ChEMBL document CHEMBL3132769, “Fragment growing to retain or alter the selectivity of anchored kinase hinge-binding fragments” (Medchemcomm, 2014)
